Data taken from article PMC12655637, “Design, Synthesis, and Mechanistic Study of Novel Ciprofloxacin/Thiazole Chalcone Hybrids as Potential Anticancer Agents” (Pharmaceuticals, 2025).
“And” between values parts separate entries of the source, which are not always exact repeats. Equal values may be shown once.

What was measured:
[1] = test system: leukemia HL-60, RPMI-8226, and colon HCT-116 cells; experiment: Antiproliferative activity, IC50 range over three cell lines; assay type: cell-based; settings: Homo sapiens; range over HL-60, RPMI-8226 and HCT-116
Breast Cancer cell lines = experiment: NCI five-dose testing, subpanel (MID b, selectivity); settings: for SI: full-panel MG-MID / subpanel MG-MID, Breast Cancer; for MG-MID: mean activity across subpanel Breast Cancer
From the text: (§1) The log10 GI50, log10 TGI, and log10 LC50 values were subsequently calculated as the averages of the log10 values of the respective individual GI50, TGI, and LC50 measurements. Negative numbers signified the most sensitive cell lines.
(§2) One way to measure a compound’s selectivity is to divide its subpanel MID^b (in μM) by the MID^a (in μM), which is the average sensitivity of all cell lines to the test agent.
(§3) At the National Cancer Institute (NCI) in Bethesda, USA, researchers examined the anticancer potential of the target compounds under investigation using nine panels of sixty different cell lines obtained from nine different cancers that were housed in the NCI library. Following the protocols laid out by the National Cancer Institute (https://dctd.cancer.gov/data-tools-biospecimens/data (accessed on 15 March 2023 and 6 January 2024)), the screening procedures were carried out [37]. The anticancer screening was carried out at a single dose of 10^−5 M; the results obtained were expressed as growth inhibition (%).
(§4) The anti-cancer potential of the tested compounds was evaluated at the National cancer institute (NCI), Bethesda, USA, against 9 panels of 60 various cell lines derived from nine human tumours available usually at NCI library. The procedures for the screening were described in details in NCI website (dttp://www.dtp.nci.nih.gov.) and were done according to NCI protocols. The anticancer screening was carried out at single dose of 10^-5 M. The results obtained as growth inhibition (%).
(§5) Cell lines were grown in Roswell Park Memorial Institute medium (RPMI) with 5% fetal bovine serum and 2% μM L-glutamine. Cancer cells are inoculated into 96 well microtiter plates in 100 μL at plating densities ranging from 5000 to 40,000 cells/well depending on the doubling time of individual cell lines. Then microtiter plates are incubated at 37 °C, 5% CO2, 95% air and 100% relative humidity for 24 h prior to the addition of the tested compounds. After 24 h, two plates of each cell line are fixed in situ with trichloroacetic acid (TCA). The tested compounds were dissolved in dimethyl sulfoxide (DMSO) and stored in the freezer prior to use. An aliquot of frozen drug concentrate is diluted to the desired concentration with complete medium containing 50 μg/mL gentamicin.
(§6) compounds were added to the microtiter plates followed by incubation for further 48 h at 37 °C, 5% CO2, 95% air and 100% relative humidity. Fixation of cancer cell lines is carried out through gentle addition of 50 μL of cold 50 %w/v TCA (final concentration, 10% TCA) then incubated for 60 min. at 4 °C. The plates are washed five times with tap water after getting rid of the supernatant and allowed to dry in air. Sulforhodamine B (SRB) solution (100 μL) at 0.4% w/v in 1% acetic

[2] = test system: Ovarian Cancer cell lines; experiment: as above; settings: for SI: full-panel MG-MID / subpanel MG-MID, Ovarian Cancer; for MG-MID: mean activity across subpanel Ovarian Cancer
From the text: as §1, §2, §3, §4, §5, §6

[3] = In vitro cytotoxicity against normal cell line WI 38; assay type: cell-based; settings: human, WI-38 normal cell line; for viability at 0.4 µM: WI38, 0.4uM; for viability at 1.6 µM: WI38, 1.6uM; for viability at 6.3 µM: WI38, 6.3uM; for viability at 25 µM: WI38, 25uM; for viability at 100 µM: WI38, 100uM; for IC50: ± SEM
From the text: Detailed results of cytotoxicity of compounds 4b and 4d against normal cell
Blank CC Sample No. 4b/WI38 sample no. 4d/WI38
conc. viability conc. viability

topoisomerase IIβ = topoisomerase IIβ (Homo sapiens, UniProt Q02880); experiment: Topoisomerase II inhibition assay (ELISA kit of human DNA topoisomerase); settings: for TOPO II fld (fold of control): HCT116, control = 1; for Topoisomerase II % Inhibition: in comparison to negative control
Colon Cancer cell lines = experiment: NCI five-dose testing, subpanel (GI50 range, MID b, selectivity); settings: for GI50: Homo sapiens; for SI: full-panel MG-MID / subpanel MG-MID, Colon Cancer; for MG-MID: mean activity across subpanel Colon Cancer
From the text: as §1, §2
(§7) At the National Cancer Institute (NCI) in Bethesda, USA, researchers examined the anticancer potential of the target compounds under investigation using nine panels of sixty different cell lines obtained from nine different cancers that were housed in the NCI library. […] The anticancer screening was carried out at a single dose of 10^−5 M; the results obtained were expressed as growth inhibition (%).
(§8) The anti-cancer potential of the tested compounds was evaluated at the National cancer institute (NCI), Bethesda, USA, against 9 panels of 60 various cell lines derived from nine human tumours available usually at NCI library. […] The anticancer screening was carried out at single dose of 10^-5 M. The results obtained as growth inhibition (%).
as §5, §6

Renal Cancer cell lines = experiment: NCI five-dose testing, subpanel (MID b, selectivity); settings: full-panel MG-MID / subpanel MG-MID
From the text: as §1, §2, §3
The anti-cancer potential of the tested compounds was evaluated at the National cancer institute (NCI), Bethesda, USA, against 9 panels of 60 various cell lines derived from nine human tumours available usually at NCI library. The procedures for the screening were described in details in NCI website (dttp://www.dtp.nci.nih.gov.) and were done according to NCI protocols. […]

CNS Cancer cell lines = experiment: as above; settings: for SI: full-panel MG-MID / subpanel MG-MID, CNS Cancer; for MG-MID: mean activity across subpanel CNS Cancer
From the text: as §1, §2, §7, §8, §5, §6

[4] = test system: Leukemia cancer cell lines; experiment: NCI five-dose testing, subpanel (GI50 range, MID b, selectivity); settings: for GI50: Homo sapiens; for SI: full-panel MG-MID / subpanel MG-MID, Leukemia; for MG-MID: mean activity across subpanel Leukemia
From the text: as §1, §2, §7, §8, §5, §6

Melanoma cell lines = experiment: NCI five-dose testing, subpanel (MID b, selectivity); settings: for SI: full-panel MG-MID / subpanel MG-MID, Melanoma; for MG-MID: mean activity across subpanel Melanoma
From the text: as §1, §2, §7, §8, §5, §6

[5] = test system: Prostate Cancer cell lines; experiment: as above; settings: for SI: full-panel MG-MID / subpanel MG-MID, PC (prostate); for MG-MID: mean activity across subpanel PC (prostate)
From the text: as §1, §2, §3, §4, §5, §6

colon HCT116 cells = experiment: Annexin V-FITC/PI apoptosis and necrosis assay; assay type: cell-based, human; settings: HCT116 treated with IC50 concentration; for Apoptosis Late: DMSO 0.15%; for Apoptosis Early: DMSO 0.39%; for Apoptosis Total: DMSO 0.54%; for Necrosis: DMSO 1.83%
[6] = test system: Non-Small-Cell Lung Cancer cell lines; experiment: NCI five-dose testing, subpanel (MID b, selectivity); settings: for SI: full-panel MG-MID / subpanel MG-MID, Non-Small-Cell Lung Cancer; for MG-MID: mean activity across subpanel Non-Small-Cell Lung Cancer
From the text: as §1, §2, §7, §8, §5, §6

Topoisomerase I = molecular target: T1, Topoisomerase I (Homo sapiens, UniProt P11387); experiment: Topoisomerase I inhibition assay (ELISA kit of human DNA topoisomerase); settings: for TOPO I fld (fold of control): HCT116, control = 1; for Topoisomerase I % Inhibition: in comparison to negative control
T1 sequence (P11387 1-765): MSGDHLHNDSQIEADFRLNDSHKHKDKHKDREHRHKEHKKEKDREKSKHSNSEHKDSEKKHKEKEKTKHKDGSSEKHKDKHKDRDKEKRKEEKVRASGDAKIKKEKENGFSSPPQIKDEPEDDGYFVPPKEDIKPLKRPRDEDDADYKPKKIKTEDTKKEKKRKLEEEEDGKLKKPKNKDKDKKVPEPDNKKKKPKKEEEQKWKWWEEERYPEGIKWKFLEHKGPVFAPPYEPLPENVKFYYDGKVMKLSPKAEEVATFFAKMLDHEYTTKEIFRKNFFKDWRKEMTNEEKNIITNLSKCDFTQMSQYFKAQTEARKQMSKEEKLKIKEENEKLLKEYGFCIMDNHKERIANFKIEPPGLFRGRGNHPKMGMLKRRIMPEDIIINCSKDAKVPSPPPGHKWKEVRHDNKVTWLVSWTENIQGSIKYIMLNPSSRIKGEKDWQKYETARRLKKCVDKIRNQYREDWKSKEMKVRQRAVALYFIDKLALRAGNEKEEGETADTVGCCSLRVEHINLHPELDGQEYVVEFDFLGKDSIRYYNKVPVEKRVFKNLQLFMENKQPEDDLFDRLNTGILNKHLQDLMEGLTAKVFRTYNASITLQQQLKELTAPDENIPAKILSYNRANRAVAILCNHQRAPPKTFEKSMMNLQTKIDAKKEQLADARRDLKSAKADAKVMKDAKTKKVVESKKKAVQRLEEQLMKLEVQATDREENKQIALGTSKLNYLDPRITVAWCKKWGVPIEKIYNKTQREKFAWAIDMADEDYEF
Protocol: The assay was performed using a commercially available Topoisomerase I Drug Screening Kit (TopoGen, Inc., Cat. # TG1015-1, Buena Vista, CO, USA) according to the manufacturer’s instructions, with minor modifications.
Evaluation of Topoisomerase I/II inhibition
Two folds of serial dilution was accomplished after standards and the tested compounds were dissolved in sample diluent.
Horseradish peroxidase (HRP-avidin) and biotin-conjugated antibody were diluted 10 times each.
Each well received 100 μL of each concentration of the standard or test chemicals, which were then added and incubated at 37 °C for 60 min. After each well's liquid had been carefully removed,
incubated for 1 h at 37 °C. The microtiter plate was rinsed three times and given room to aspirate.
After that, the plate was incubated at 37 °C for 60 min with 100 μL of HRP-avidin solution added to each well. After that, the plate was aspirated and cleaned 5 times. Each well received 90 μL of TMB substrate, and the plate was incubated for 30 min. at 37 °C in a light-protected environment.
Finally, stop solution (50 μL) was loaded, and within 5 minutes, the absorbance at 450 nm was measured spectrophotometrically.

UO-31 = experiment: NCI-60 screening, five-dose, SRB; assay type: cell-based, human; settings: for GI50 / IC50 / LC50 (concentration killing 50% of cells): Homo sapiens
caspase-3 = experiment: Relative gene expression by qRT-PCR in HCT-116; assay type: cell-based, human; settings: HCT116; untreated control = 1
caspase-9 = experiment: Relative gene expression by qRT-PCR in HCT-116; assay type: cell-based, human; settings: HCT116; untreated control = 1
Bax = experiment: Relative gene expression by qRT-PCR in HCT-116; assay type: cell-based, human; settings: HCT116; untreated control = 1

Chain of topoisomerase IIβ (Q02880 2-1626): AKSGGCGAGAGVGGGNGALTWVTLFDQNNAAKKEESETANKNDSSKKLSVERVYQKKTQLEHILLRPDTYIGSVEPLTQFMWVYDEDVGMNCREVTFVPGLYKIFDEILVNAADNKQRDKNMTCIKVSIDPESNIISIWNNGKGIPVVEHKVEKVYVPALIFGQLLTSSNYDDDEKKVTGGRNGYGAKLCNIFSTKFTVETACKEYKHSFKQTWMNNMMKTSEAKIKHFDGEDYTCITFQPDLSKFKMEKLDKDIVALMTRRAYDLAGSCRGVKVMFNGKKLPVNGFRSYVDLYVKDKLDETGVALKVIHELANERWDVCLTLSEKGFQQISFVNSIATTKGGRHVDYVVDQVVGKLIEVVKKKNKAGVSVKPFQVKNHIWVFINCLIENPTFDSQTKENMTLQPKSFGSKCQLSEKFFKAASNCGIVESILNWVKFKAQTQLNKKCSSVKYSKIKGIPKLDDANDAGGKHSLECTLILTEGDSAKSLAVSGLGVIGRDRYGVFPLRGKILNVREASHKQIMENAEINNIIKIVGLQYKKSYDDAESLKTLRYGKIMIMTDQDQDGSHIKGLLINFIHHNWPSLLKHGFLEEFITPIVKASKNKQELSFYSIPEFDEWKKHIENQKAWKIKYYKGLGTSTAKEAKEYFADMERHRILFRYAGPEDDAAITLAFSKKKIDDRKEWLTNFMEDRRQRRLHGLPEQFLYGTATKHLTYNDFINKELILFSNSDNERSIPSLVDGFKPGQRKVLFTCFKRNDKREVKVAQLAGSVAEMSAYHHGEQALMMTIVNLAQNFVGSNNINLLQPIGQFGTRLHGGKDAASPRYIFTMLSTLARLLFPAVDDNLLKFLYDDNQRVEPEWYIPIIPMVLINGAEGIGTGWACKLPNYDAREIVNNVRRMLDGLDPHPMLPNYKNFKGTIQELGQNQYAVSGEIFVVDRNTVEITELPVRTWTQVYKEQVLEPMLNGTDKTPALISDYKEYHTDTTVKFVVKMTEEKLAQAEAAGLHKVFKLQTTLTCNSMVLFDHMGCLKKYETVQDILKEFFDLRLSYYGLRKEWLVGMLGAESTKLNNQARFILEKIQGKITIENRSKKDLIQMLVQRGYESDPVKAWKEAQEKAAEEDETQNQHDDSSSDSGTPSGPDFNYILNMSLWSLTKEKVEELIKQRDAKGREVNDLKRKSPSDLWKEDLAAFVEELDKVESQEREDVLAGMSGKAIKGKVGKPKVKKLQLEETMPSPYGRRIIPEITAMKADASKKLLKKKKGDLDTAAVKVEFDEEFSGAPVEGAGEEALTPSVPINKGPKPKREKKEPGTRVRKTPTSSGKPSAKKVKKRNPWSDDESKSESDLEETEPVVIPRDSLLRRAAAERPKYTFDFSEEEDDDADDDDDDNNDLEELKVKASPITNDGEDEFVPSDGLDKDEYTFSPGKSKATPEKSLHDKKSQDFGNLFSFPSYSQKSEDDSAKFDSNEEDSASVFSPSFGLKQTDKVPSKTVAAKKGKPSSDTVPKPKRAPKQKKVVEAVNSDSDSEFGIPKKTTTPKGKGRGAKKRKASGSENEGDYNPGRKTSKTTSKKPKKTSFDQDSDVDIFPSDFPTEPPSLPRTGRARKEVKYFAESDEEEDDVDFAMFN

Cc1nc(SCC(=O)N2CCN(c3cc4c(cc3F)c(=O)c(C(=O)O)cn4C3CC3)CC2)sc1C(=O)/C=C/c1cccc(Cl)c1 [Compound 4b, (E)-7-(4-(2-((5-(3-(3-Chlorophenyl)acryloyl)-4-methylthiazol-2-yl)thio)acetyl)piperazin-1-yl)-1-cyclopropyl-6-fluoro-4-oxo-1,4-dihydroquinoline-3-carboxylic Acid]
IC50 [1]: 300 to 3700 nM
SI (Breast Cancer cell lines): 1.04
MG-MID (Breast Cancer cell lines): 67.8 µM
SI [2]: 0.77
MG-MID [2]: 91.67 µM
viability at 0.4 µM [3]: 82.8%
viability at 1.6 µM [3]: 71.8%
viability at 6.3 µM [3]: 63.5%
viability at 25 µM [3]: 52.9%
viability at 100 µM [3]: 37.1%
IC50 [3]: 26.8 ± 0.92 µM
TOPO II fld (fold of control) (topoisomerase IIβ): 0.266
Topoisomerase II % Inhibition (topoisomerase IIβ): 73.4%
GI50 (Colon Cancer cell lines): 300 to 15100 nM
SI (Colon Cancer cell lines): 2.18
MG-MID (Colon Cancer cell lines): 32.16 µM
SI (Renal Cancer cell lines): 1.5
SI (CNS Cancer cell lines): 1.01
MG-MID (CNS Cancer cell lines): 69.63 µM
GI50 [4]: 200 to 12900 nM
SI [4]: 9.22
MG-MID [4]: 7.62 µM
SI (Melanoma cell lines): 0.95
MG-MID (Melanoma cell lines): 74.08 µM
SI [5]: 0.70
MG-MID [5]: 100.0 µM
Apoptosis Late (colon HCT116 cells): 22.37%
Apoptosis Early (colon HCT116 cells): 6.96%
Apoptosis Total (colon HCT116 cells): 29.33%
Necrosis (colon HCT116 cells): 3.66%
SI [6]: 0.73
MG-MID [6]: 96.35 µM
TOPO I fld (fold of control) (Topoisomerase I): 0.227
Topoisomerase I % Inhibition (Topoisomerase I): 77.3%
TGI (UO-31): 100.0 µM
GI50 (UO-31): > 100 µM
IC50 (UO-31): > 100 µM
LC50 (concentration killing 50% of cells) (UO-31): > 100 µM

Cc1nc(SCC(=O)N2CCN(c3cc4c(cc3F)c(=O)c(C(=O)O)cn4C3CC3)CC2)sc1C(=O)/C=C/c1cccc(F)c1 [Compound 4d, (E)-1-Cyclopropyl-6-fluoro-7-(4-(2-((5-(3-(3-fluorophenyl)acryloyl)-4-methylthiazol-2-yl)thio)acetyl)piperazin-1-yl)-4-oxo-1,4-dihydroquinoline-3-carboxylic Acid]
IC50 [1]: 300 to 3700 nM
SI (Breast Cancer cell lines): 0.99
MG-MID (Breast Cancer cell lines): 71.1 µM
Relative gene expression of caspase-3 (caspase-3): 10.86 fold
SI [2]: 0.70
MG-MID [2]: 100 µM
viability at 0.4 µM [3]: 83.4%
viability at 1.6 µM [3]: 72.8%
viability at 6.3 µM [3]: 64.1%
viability at 25 µM [3]: 52.9%
viability at 100 µM [3]: 44%
IC50 [3]: 41.2 ± 1.42 µM
TOPO II fld (fold of control) (topoisomerase IIβ): 0.481
Topoisomerase II % Inhibition (topoisomerase IIβ): 51.9%
GI50 (Colon Cancer cell lines): 520 to 4900 nM
SI (Colon Cancer cell lines): 2.8
MG-MID (Colon Cancer cell lines): 25.3 µM
SI (Renal Cancer cell lines): 1.5
SI (CNS Cancer cell lines): 0.97
MG-MID (CNS Cancer cell lines): 72.0 µM
GI50 [4]: 190 to 3390 nM
SI [4]: 24.6
MG-MID [4]: 2.9 µM
SI (Melanoma cell lines): 0.89
MG-MID (Melanoma cell lines): 79.00 µM
Relative gene expression of caspase-9 (caspase-9): 4.2 fold and 4.214 fold
SI [5]: 0.70
MG-MID [5]: 100.0 µM
Apoptosis Late (colon HCT116 cells): 26.29%
Apoptosis Early (colon HCT116 cells): 11.92%
Apoptosis Total (colon HCT116 cells): 38.21%
Necrosis (colon HCT116 cells): 3.82%
Relative gene expression of Bax (Bax): 5.58 fold and 5.577 fold
SI [6]: 0.81
MG-MID [6]: 86.5 µM
TOPO I fld (fold of control) (Topoisomerase I): 0.277
Topoisomerase I % Inhibition (Topoisomerase I): 72.3%
TGI (UO-31): 100.0 µM
GI50 (UO-31): > 100 µM
IC50 (UO-31): > 100 µM
LC50 (concentration killing 50% of cells) (UO-31): > 100 µM
